{"source": "patent US20240066119A1", "about": "“METHODS AND PLATFORMS FOR ELICITING AN IMMUNE RESPONSE IN THE TREATMENT OF CANCER AND COMPOSITIONS AND VACCINES RELATING THERETO” (University of Maryland, College Park, priority 2021, published 2024)", "tested_on": "lymphocyte egress from lymphoid tissues", "test": "Inhibition of lymphocyte trafficking with FTY720", "format": "in vivo, C57BL6 mice", "settings": "FTY720 1 mg/kg daily i.p., day 7 after vaccination", "protocol": "Investigation of Adjuvant-Involvement on Split LN Treatments and Effect of Inhibition of Lymphocyte Trafficking on Antigen Specificity. To determine the influence of adjuvant (PolyIC) delivery in the Split LN treatment group on antigen-specificity as quantified by SIINFEKL tetramer, mice were treated as described above for Split LN treatment with soluble OVA and either PolyIC MPs or with PBS. Antigen-specific CD8^+ T cells in the blood and LNs were quantified using SIINFEKL tetramer as described above. Antigen-specific T cells were reported as a percentage of Live, CD8^+ cells. In studies to determine the effect of lymphocyte trafficking on local and systemic antigen-specificity, FTY720 (Sigma) was administered daily at 1 mg/kg via intraperitoneal injection one day prior to vaccination until the end of the experiment (7 days after vaccination). Following vaccination, antigen-specific CD8^+ T cells in the blood and LNs were quantified using SIINFEKL tetramer as described above and reported as a percentage of Live, CD8^+ cells and an overall number of cells from an identical acquisition volume (80 μL).", "data": [{"molecule": "CCCCCCCCc1ccc(CCC(N)(CO)CO)cc1", "note": "[FTY720]", "values": [{"measurement": "number of antigen-specific T cells in blood", "result": "greatly diminished"}, {"measurement": "percentage of antigen-specific T cells in blood", "result": "did not significantly change"}]}]}
